# Experimental data published in PMC7784547 (Bioorganic Chemistry, 2021).
# “Also recorded” adds a separate entry of the source. Read-outs that look alike come from different tables or passages of the source.
# Key:
# A/Aichi/2/68 (H3N2) = test: microbe, parasite or virus in culture; format: cell-based; details: read-out: IC50 ± SD, H3N2
# in vitro = details: dog
# [1] = test system: Influenza A/Puerto Rico/8/34 (H1N1); test: microbe, parasite or virus in culture; details: H1N1|PR8, MDCK, read-out: IC50 ± SD, PR8
# [2] = test system: Influenza A/Puerto Rico/8/34 (H1N1)
# SARS-CoV-2 = details: read-out: IC50 against SARS-CoV-2, Full-time treatment; cited from earlier work
# [3] = test system: influenza A/PR/8/34 (H1N1) virus; set-up: species or system KM mice; details: mouse, in vivo; for body weight of infected mice: po
# hemagglutinin (HA) = hemagglutinin (HA) (Influenza A virus, UniProt P03452)
# Sequence of hemagglutinin (HA) (P03452 18-342 limits assumed): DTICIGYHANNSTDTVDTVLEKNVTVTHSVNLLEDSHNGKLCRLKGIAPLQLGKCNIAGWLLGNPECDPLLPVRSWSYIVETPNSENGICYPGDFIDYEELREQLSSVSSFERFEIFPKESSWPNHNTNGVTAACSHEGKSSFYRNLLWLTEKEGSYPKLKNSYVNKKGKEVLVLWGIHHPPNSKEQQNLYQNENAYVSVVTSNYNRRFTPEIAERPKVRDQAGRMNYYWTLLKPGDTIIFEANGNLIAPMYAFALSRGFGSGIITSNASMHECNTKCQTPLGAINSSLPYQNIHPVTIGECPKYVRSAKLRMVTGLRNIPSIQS
# Sequence of hemagglutinin (HA) (P03452 344-565 limits assumed): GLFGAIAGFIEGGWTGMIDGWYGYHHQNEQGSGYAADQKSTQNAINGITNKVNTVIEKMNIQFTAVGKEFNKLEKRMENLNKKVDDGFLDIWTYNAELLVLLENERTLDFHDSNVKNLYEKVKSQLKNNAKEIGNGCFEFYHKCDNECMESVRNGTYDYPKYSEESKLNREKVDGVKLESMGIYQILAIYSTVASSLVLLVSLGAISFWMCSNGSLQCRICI
# [4] = test system: A/Puerto Rico/8/34 (H1N1) influenza virus; format: cell-based
# [5] = test system: influenza A/PR/8/34 (H1N1) virus; format: cell-based
# [6] = test system: Influenza A/Puerto Rico/8/34 (H1N1); format: cell-based, influenza A virus
# influenza A virus = format: cell-based
# [7] = test system: influenza virus A/PR/8/34 (H1N1)
# [8] = mouse, in vivo, po, 10 mg/kg
compound,measurement,setting,value
"C=Cc1c(C)c2cc3nc(c4c5[nH]c(cc6nc(cc1[nH]2)C(C)=C6CC)c(C)c5C(=O)C4)[C@@H](CCC(=O)O)[C@@H]3C [PPa, pyropheophorbide a, reference compound]",IC50,"A/Aichi/2/68 (H3N2); Influenza A virus, H3N2, MDCK",1.23 ± 1.1 µM
same,CC50,in vitro,140 ± 3.61 µM
same,IC50,[1],0.32 ± 0.28 µM
"CC(C)CCC[C@@H](C)[C@H]1CC[C@H]2[C@@H]3CC=C4C[C@@H](OCC(=O)N[C@@H](CCCCN)C(=O)N[C@@H](CCCCN)C(=O)N[C@@H](Cc5c[nH]c6ccccc56)C(=O)N[C@@H](CCCCN)C(N)=O)CC[C@]4(C)[C@H]3CC[C@]12C [S-KKWK, reference compound]",IC50,"[2]; /Puerto Rico/8/34, 48 h",1.85 ± 0.92 µM
CCN(CC)CCCC(C)Nc1ccnc2cc(Cl)ccc12 (centres unmarked) [chloroquine],IC50,SARS-CoV-2,10 µM
"CCOC(=O)C1=C[C@@H](OC(CC)CC)[C@H](NC(C)=O)[C@@H](N)C1 [oseltamivir phosphate, reference compound]",body weight of infected mice,[3],slowly increased
protoporphyrin IX [PPIX],IC50,A/Aichi/2/68 (H3N2),1.49 ± 0.66 µM
same,survival rate and mean survival time of infected mice,[3],apparently prolonged; also recorded: apparently increased
same,body weight of infected mice,[3],slowly increased
same,hemagglutinin inhibition (viral adsorption to target cells),hemagglutinin (HA),negative results
same,NP expression (green fluorescence) after treatment,[4],apparently decreased
same,inhibitory effect by time of addition (viral titer in supernatant),[5],better inhibitory effect
same,antiviral activity with red light versus no light,[6],no significant difference
same,antiviral activity with increasing added lipids,influenza A virus,decreased along with the increase of lipids
same,IC50,"[2]; read-out: IC50 ± SD, PR8",1.88 ± 0.85 µM
same,CC50,MDCK cells,230 ± 4.53 µM
same,CC90,MDCK cells,316 µM
same,CC50,Vero-E6 cells,120.8 ± 0.95 µM
same,IC50,"[7]; read-out: IC50 ± SD, After infection",> 17.8 µM
same,IC50,"[7]; read-out: IC50 ± SD, During infection",8.87 ± 3.07 µM
same,IC50,"[7]; read-out: IC50 ± SD, Pretreatment of cell",> 17.8 µM
same,IC50,"[7]; read-out: IC50 ± SD, Pretreatment of virus",1.88 ± 0.85 µM
same,time of maximum peak of PPIX in plasma,[8],about 2 h
